Assay results: PubChem BioAssay (NCI)
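Interpolation was linear, between the two tested concentrations surrounding the appropriate level; five concentrations were tested over 48 hours in 96-well plates. GI50: concentration for 50% inhibition of growth. TGI: total growth inhibition.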

Tests used:
Test in all cases: inhibition of tumour cell growth, NCI panel, 48 h
A498 renal = tested on: A498 renal
A549 NSCLC = tested on: A549 NSCLC
ACHN renal = tested on: ACHN renal
CAKI-1 renal = tested on: CAKI-1 renal
CCRF-CEM leukemia = tested on: CCRF-CEM leukemia
COLO 205 colon = tested on: COLO 205 colon
DU-145 prostate = tested on: DU-145 prostate
EKVX NSCLC = tested on: EKVX NSCLC
HCC-2998 colon = tested on: HCC-2998 colon
HCT-116 colon = tested on: HCT-116 colon
HCT-15 colon = tested on: HCT-15 colon
HL-60(TB) leukemia = tested on: HL-60(TB) leukemia
HOP-62 NSCLC = tested on: HOP-62 NSCLC
HOP-92 NSCLC = tested on: HOP-92 NSCLC
HS 578T breast = tested on: HS 578T breast
HT29 colon = tested on: HT29 colon
IGROV1 ovarian = tested on: IGROV1 ovarian
K-562 leukemia = tested on: K-562 leukemia
KM12 colon = tested on: KM12 colon
LOX IMVI melanoma = tested on: LOX IMVI melanoma
M14 melanoma = tested on: M14 melanoma
MALME-3M melanoma = tested on: MALME-3M melanoma
MCF7 breast = tested on: MCF7 breast
MDA-MB-231 breast = tested on: MDA-MB-231 breast
MDA-MB-435 = tested on: MDA-MB-435
MOLT-4 leukemia = tested on: MOLT-4 leukemia
NCI-H226 lung = tested on: NCI-H226 lung
NCI-H23 lung = tested on: NCI-H23 lung
NCI-H460 lung = tested on: NCI-H460 lung
NCI-H522 lung = tested on: NCI-H522 lung
NCI/ADR-RES ovarian = tested on: NCI/ADR-RES ovarian
OVCAR-3 ovarian = tested on: OVCAR-3 ovarian
OVCAR-4 ovarian = tested on: OVCAR-4 ovarian
OVCAR-5 ovarian = tested on: OVCAR-5 ovarian
OVCAR-8 ovarian = tested on: OVCAR-8 ovarian
PC-3 prostate = tested on: PC-3 prostate
RPMI-8226 leukemia = tested on: RPMI-8226 leukemia
RXF 393 renal = tested on: RXF 393 renal
SF-268 CNS = tested on: SF-268 CNS
SF-295 CNS = tested on: SF-295 CNS
SF-539 CNS = tested on: SF-539 CNS
SK-MEL-2 melanoma = tested on: SK-MEL-2 melanoma
SK-MEL-28 melanoma = tested on: SK-MEL-28 melanoma
SK-MEL-5 melanoma = tested on: SK-MEL-5 melanoma
SN12C renal = tested on: SN12C renal
SNB-19 CNS = tested on: SNB-19 CNS
SNB-75 CNS = tested on: SNB-75 CNS
SR leukemia = tested on: SR leukemia
SW-620 colon = tested on: SW-620 colon
T-47D breast = tested on: T-47D breast
TK-10 renal = tested on: TK-10 renal
U251 CNS = tested on: U251 CNS
UACC-257 melanoma = tested on: UACC-257 melanoma
UACC-62 melanoma = tested on: UACC-62 melanoma
UO-31 renal = tested on: UO-31 renal
786-0 renal = tested on: 786-0 renal
SK-OV-3 ovarian = tested on: SK-OV-3 ovarian

SMILES: O=C(Nc1ccc(-n2ccc3c(NC(=O)c4ccccc4)ncnc32)cc1)Nc1ccc(Cl)c(Cl)c1
- GI50 (A498 renal): 7.05 µM
- TGI (A498 renal): 14.7 µM
- GI50 (A549 NSCLC): 1.95 µM
- TGI (A549 NSCLC): 6.64 µM
- GI50 (ACHN renal): 6.25 µM
- TGI (ACHN renal): 14.2 µM
- GI50 (CAKI-1 renal): 8.79 µM
- TGI (CAKI-1 renal): 21.2 µM
- GI50 (CCRF-CEM leukemia): 0.987 µM
- TGI (CCRF-CEM leukemia): 2.83 µM
- GI50 (COLO 205 colon): 2.6 µM
- TGI (COLO 205 colon): 9.89 µM
- GI50 (DU-145 prostate): 1.9 µM
- TGI (DU-145 prostate): 6.31 µM
- GI50 (EKVX NSCLC): 7.24 µM
- TGI (EKVX NSCLC): 21 µM
- GI50 (HCC-2998 colon): 5.34 µM
- TGI (HCC-2998 colon): 20.7 µM
- GI50 (HCT-116 colon): 1.66 µM
- TGI (HCT-116 colon): 5.06 µM
- GI50 (HCT-15 colon): 1.74 µM
- TGI (HCT-15 colon): 6.97 µM
- GI50 (HL-60(TB) leukemia): 8.18 µM
- TGI (HL-60(TB) leukemia): 30.6 µM
- GI50 (HOP-62 NSCLC): 1.85 µM
- TGI (HOP-62 NSCLC): 7.44 µM
- GI50 (HOP-92 NSCLC): 1.12 µM
- TGI (HOP-92 NSCLC): 6.94 µM
- GI50 (HS 578T breast): 1.19 µM
- TGI (HS 578T breast): 5.77 µM
- GI50 (HT29 colon): 0.965 µM
- TGI (HT29 colon): 2.9 µM
- GI50 (IGROV1 ovarian): 7.16 µM
- TGI (IGROV1 ovarian): 18.2 µM
- GI50 (K-562 leukemia): 1.73 µM
- TGI (K-562 leukemia): 6.75 µM
- GI50 (KM12 colon): 1.8 µM
- TGI (KM12 colon): 6.67 µM
- GI50 (LOX IMVI melanoma): 2.38 µM
- TGI (LOX IMVI melanoma): 16.3 µM
- GI50 (M14 melanoma): 2.42 µM
- TGI (M14 melanoma): 8.11 µM
- GI50 (MALME-3M melanoma): 3.39 µM
- TGI (MALME-3M melanoma): 12 µM
- GI50 (MCF7 breast): 1.9 µM
- TGI (MCF7 breast): 8.25 µM
- GI50 (MDA-MB-231 breast): 4.11 µM
- TGI (MDA-MB-231 breast): 11 µM
- GI50 (MDA-MB-435): 2.44 µM
- TGI (MDA-MB-435): 11.5 µM
- GI50 (MOLT-4 leukemia): 2.75 µM
- TGI (MOLT-4 leukemia): 12.9 µM
- GI50 (NCI-H226 lung): 11.7 µM
- TGI (NCI-H226 lung): 29.2 µM
- GI50 (NCI-H23 lung): 6.33 µM
- TGI (NCI-H23 lung): 22.3 µM
- GI50 (NCI-H460 lung): 1.71 µM
- TGI (NCI-H460 lung): 5.85 µM
- GI50 (NCI-H522 lung): 1.28 µM
- TGI (NCI-H522 lung): 7.34 µM
- GI50 (NCI/ADR-RES ovarian): 10.3 µM
- TGI (NCI/ADR-RES ovarian): 50 µM
- GI50 (OVCAR-3 ovarian): 1.35 µM
- TGI (OVCAR-3 ovarian): 3.5 µM
- GI50 (OVCAR-4 ovarian): 0.887 µM
- TGI (OVCAR-4 ovarian): 1.8 µM
- GI50 (OVCAR-5 ovarian): 5.62 µM
- TGI (OVCAR-5 ovarian): 13.2 µM
- GI50 (OVCAR-8 ovarian): 2.38 µM
- TGI (OVCAR-8 ovarian): 8.6 µM
- GI50 (PC-3 prostate): 1.06 µM
- TGI (PC-3 prostate): 2.86 µM
- GI50 (RPMI-8226 leukemia): 1.21 µM
- TGI (RPMI-8226 leukemia): 3.2 µM
- GI50 (RXF 393 renal): 6.48 µM
- TGI (RXF 393 renal): 13.3 µM
- GI50 (SF-268 CNS): 4.22 µM
- TGI (SF-268 CNS): 12.9 µM
- GI50 (SF-295 CNS): 4.5 µM
- TGI (SF-295 CNS): 14.2 µM
- GI50 (SF-539 CNS): 1.32 µM
- TGI (SF-539 CNS): 10.3 µM
- GI50 (SK-MEL-2 melanoma): 5.2 µM
- TGI (SK-MEL-2 melanoma): 12.9 µM
- GI50 (SK-MEL-28 melanoma): 2.92 µM
- TGI (SK-MEL-28 melanoma): 9.43 µM
- GI50 (SK-MEL-5 melanoma): 7.05 µM
- TGI (SK-MEL-5 melanoma): 15.1 µM
- GI50 (SN12C renal): 4.76 µM
- TGI (SN12C renal): 12.3 µM
- GI50 (SNB-19 CNS): 4.58 µM
- TGI (SNB-19 CNS): 12.6 µM
- GI50 (SNB-75 CNS): 1.03 µM
- TGI (SNB-75 CNS): 5.27 µM
- GI50 (SR leukemia): 1.17 µM
- TGI (SR leukemia): 2.7 µM
- GI50 (SW-620 colon): 1.54 µM
- TGI (SW-620 colon): 5.31 µM
- GI50 (T-47D breast): 3.32 µM
- TGI (T-47D breast): 11.7 µM
- GI50 (TK-10 renal): 1.44 µM
- TGI (TK-10 renal): 3.46 µM
- GI50 (U251 CNS): 0.942 µM
- TGI (U251 CNS): 2.29 µM
- GI50 (UACC-257 melanoma): 3.57 µM
- TGI (UACC-257 melanoma): 10.8 µM
- GI50 (UACC-62 melanoma): 6.34 µM
- TGI (UACC-62 melanoma): 13.1 µM
- GI50 (UO-31 renal): 7.16 µM
- TGI (UO-31 renal): 14.8 µM

SMILES: Fc1ccc2c(c1)c(-c1nc(-c3c[nH]c4ncccc34)cs1)cn2CCCCN1CCCCC1
- GI50 (786-0 renal): 1.62 µM
- TGI (786-0 renal): 3.07 µM
- GI50 (A498 renal): 1.51 µM
- TGI (A498 renal): 3.05 µM
- GI50 (A549 NSCLC): 1.77 µM
- TGI (A549 NSCLC): 3.31 µM
- GI50 (ACHN renal): 1.67 µM
- TGI (ACHN renal): 3.1 µM
- GI50 (DU-145 prostate): 1.76 µM
- TGI (DU-145 prostate): 3.21 µM
- GI50 (HOP-62 NSCLC): 1.53 µM
- TGI (HOP-62 NSCLC): 3.01 µM
- GI50 (HOP-92 NSCLC): 1.16 µM
- TGI (HOP-92 NSCLC): 2.48 µM
- GI50 (MDA-MB-231 breast): 1.61 µM
- TGI (MDA-MB-231 breast): 3.04 µM
- GI50 (NCI-H460 lung): 1.81 µM
- TGI (NCI-H460 lung): 3.47 µM
- GI50 (OVCAR-3 ovarian): 1.75 µM
- TGI (OVCAR-3 ovarian): 3.2 µM
- GI50 (PC-3 prostate): 1.49 µM
- TGI (PC-3 prostate): 2.89 µM
- GI50 (SF-268 CNS): 1.63 µM
- TGI (SF-268 CNS): 3.22 µM
- GI50 (SF-539 CNS): 1.61 µM
- TGI (SF-539 CNS): 3.02 µM
- GI50 (SK-MEL-28 melanoma): 1.78 µM
- TGI (SK-MEL-28 melanoma): 3.32 µM
- GI50 (SK-OV-3 ovarian): 1.72 µM
- TGI (SK-OV-3 ovarian): 3.14 µM
- GI50 (SW-620 colon): 1.74 µM
- TGI (SW-620 colon): 3.24 µM
- GI50 (TK-10 renal): 2.3 µM
- TGI (TK-10 renal): 3.89 µM
- GI50 (UACC-257 melanoma): 1.76 µM
- TGI (UACC-257 melanoma): 3.33 µM
- GI50 (UO-31 renal): 1.23 µM
- TGI (UO-31 renal): 2.57 µM
